Source: ChEMBL document CHEMBL4507329, “Data for DCP probe BTZO-1” (2021)

What was measured:
[1] = biological target: Beta-1 adrenergic receptor (Homo sapiens) (UniProt P08588); conditions: Compound concentration 10.0 uM
[2] = biological target: 5-hydroxytryptamine receptor 1A (Homo sapiens) (UniProt P08908); conditions: Compound concentration 10.0 uM
[3] = biological target: Myosin light chain kinase family member 4 (Homo sapiens) (UniProt Q86YV6); conditions: Compound concentration 1000.0 nM
[4] = biological target: Protein kinase C iota type (Homo sapiens) (UniProt P41743); conditions: Compound concentration 1000.0 nM
Sequence of Protein kinase C iota type (Homo sapiens) (P41743 whole entry): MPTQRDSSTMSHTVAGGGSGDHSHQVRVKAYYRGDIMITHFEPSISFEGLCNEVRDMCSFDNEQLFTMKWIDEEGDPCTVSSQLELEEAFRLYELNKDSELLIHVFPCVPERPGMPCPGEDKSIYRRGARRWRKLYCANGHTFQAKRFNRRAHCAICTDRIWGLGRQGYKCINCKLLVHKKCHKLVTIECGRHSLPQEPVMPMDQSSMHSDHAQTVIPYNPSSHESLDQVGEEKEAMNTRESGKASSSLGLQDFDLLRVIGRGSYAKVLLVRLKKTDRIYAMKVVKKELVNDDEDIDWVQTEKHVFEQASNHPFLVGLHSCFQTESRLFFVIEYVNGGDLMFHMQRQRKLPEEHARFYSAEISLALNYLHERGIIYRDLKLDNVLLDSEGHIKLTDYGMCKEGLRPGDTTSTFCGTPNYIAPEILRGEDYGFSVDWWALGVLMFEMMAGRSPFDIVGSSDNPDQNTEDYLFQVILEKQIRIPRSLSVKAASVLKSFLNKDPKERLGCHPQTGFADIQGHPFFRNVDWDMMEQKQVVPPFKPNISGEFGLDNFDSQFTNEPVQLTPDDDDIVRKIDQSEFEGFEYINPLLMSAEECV

[5] = biological target: Mitogen-activated protein kinase kinase kinase kinase 5 (Homo sapiens) (UniProt Q9Y4K4); conditions: Compound concentration 1000.0 nM
[6] = biological target: Phosphatidylinositol 3-kinase catalytic subunit type 3 (Homo sapiens) (UniProt Q8NEB9); conditions: Compound concentration 1000.0 nM
[7] = biological target: Mitogen-activated protein kinase kinase kinase 20 (Homo sapiens) (UniProt Q9NYL2); conditions: Compound concentration 1000.0 nM
[8] = biological target: Mitogen-activated protein kinase kinase kinase 11 (Homo sapiens) (UniProt Q16584); conditions: Compound concentration 1000.0 nM
[9] = biological target: RAF proto-oncogene serine/threonine-protein kinase (Homo sapiens) (UniProt P04049); conditions: Compound concentration 1000.0 nM
[10] = biological target: Serine/threonine-protein kinase DCLK1 (Homo sapiens) (UniProt O15075); conditions: Compound concentration 1000.0 nM
[11] = biological target: GABA-A receptor; anion channel (Rattus norvegicus) (UniProt O09028+P15431+P18506+P18508+P19969+P20236+P23574+P23576+P28471+P28473+P30191+P62813+P63079+P63138+Q91ZM7+Q9ES14); conditions: Compound concentration 10.0 uM
[12] = biological target: Vascular endothelial growth factor receptor 1 (Homo sapiens) (UniProt P17948); conditions: Compound concentration 1000.0 nM
[13] = biological target: Tyrosine-protein kinase TXK (Homo sapiens) (UniProt P42681); conditions: Compound concentration 1000.0 nM
[14] = biological target: MAP/microtubule affinity-regulating kinase 3 (Homo sapiens) (UniProt P27448); conditions: Compound concentration 1000.0 nM
Sequence of MAP/microtubule affinity-regulating kinase 3 (Homo sapiens) (P27448 whole entry, looked up): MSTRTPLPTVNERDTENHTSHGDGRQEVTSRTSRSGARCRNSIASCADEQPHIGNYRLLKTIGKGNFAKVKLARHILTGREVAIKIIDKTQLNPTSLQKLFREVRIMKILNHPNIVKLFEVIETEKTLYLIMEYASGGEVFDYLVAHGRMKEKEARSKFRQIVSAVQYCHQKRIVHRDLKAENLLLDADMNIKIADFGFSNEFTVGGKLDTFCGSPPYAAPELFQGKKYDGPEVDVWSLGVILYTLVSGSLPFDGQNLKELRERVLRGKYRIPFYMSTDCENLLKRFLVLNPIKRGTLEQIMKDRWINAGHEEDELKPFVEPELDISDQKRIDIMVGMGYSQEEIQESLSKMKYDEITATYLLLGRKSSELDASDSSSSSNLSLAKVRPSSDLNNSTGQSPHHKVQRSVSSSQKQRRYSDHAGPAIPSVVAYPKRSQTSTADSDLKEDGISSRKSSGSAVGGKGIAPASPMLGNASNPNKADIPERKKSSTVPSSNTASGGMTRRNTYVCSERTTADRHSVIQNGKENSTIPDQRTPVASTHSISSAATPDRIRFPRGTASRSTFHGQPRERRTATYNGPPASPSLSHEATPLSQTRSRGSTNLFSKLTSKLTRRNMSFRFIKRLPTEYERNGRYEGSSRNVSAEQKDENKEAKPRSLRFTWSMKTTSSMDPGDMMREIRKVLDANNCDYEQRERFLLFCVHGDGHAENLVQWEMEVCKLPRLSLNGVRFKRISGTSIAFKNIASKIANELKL

[15] = biological target: Dual specificity mitogen-activated protein kinase kinase 5 (Homo sapiens) (UniProt Q13163); conditions: Compound concentration 1000.0 nM
[16] = biological target: 5-hydroxytryptamine receptor 2C (Homo sapiens) (UniProt P28335); conditions: Compound concentration 10.0 uM
[17] = biological target: Glycogen synthase kinase-3 beta (Homo sapiens) (UniProt P49841); conditions: Compound concentration 1000.0 nM
[18] = biological target: Cyclin-dependent kinase 4 (Homo sapiens) (UniProt P11802); conditions: Compound concentration 1000.0 nM
Sequence of Cyclin-dependent kinase 4 (Homo sapiens) (P11802 whole entry): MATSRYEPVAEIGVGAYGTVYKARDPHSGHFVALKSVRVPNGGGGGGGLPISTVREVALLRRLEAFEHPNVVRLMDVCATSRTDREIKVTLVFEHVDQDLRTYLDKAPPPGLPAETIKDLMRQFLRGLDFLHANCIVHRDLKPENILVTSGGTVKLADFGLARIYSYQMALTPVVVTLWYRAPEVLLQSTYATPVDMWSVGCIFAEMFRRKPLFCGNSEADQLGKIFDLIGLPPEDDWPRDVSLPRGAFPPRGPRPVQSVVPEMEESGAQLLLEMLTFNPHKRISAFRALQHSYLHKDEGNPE

[19] = test system: Epidermal growth factor receptor (Homo sapiens), P00533 [UNDEFINED MUTATION]; conditions: Compound concentration 1000.0 nM
[20] = biological target: Dual specificity tyrosine-phosphorylation-regulated kinase 2 (Homo sapiens) (UniProt Q92630); conditions: Compound concentration 1000.0 nM
[21] = biological target: Rho-associated protein kinase 2 (Homo sapiens) (UniProt O75116); conditions: Compound concentration 1000.0 nM
[22] = biological target: Dual specificity protein kinase CLK2 (Homo sapiens) (UniProt P49760); conditions: Compound concentration 1000.0 nM
[23] = biological target: Citron Rho-interacting kinase (Homo sapiens) (UniProt O14578); conditions: Compound concentration 1000.0 nM
[24] = biological target: Serine/threonine-protein kinase B-raf (Homo sapiens) (UniProt P15056); conditions: Compound concentration 1000.0 nM
[25] = biological target: Ribosomal protein S6 kinase alpha-5 (Homo sapiens) (UniProt O75582); conditions: Compound concentration 1000.0 nM
Sequence of Ribosomal protein S6 kinase alpha-5 (Homo sapiens) (O75582 whole entry, looked up): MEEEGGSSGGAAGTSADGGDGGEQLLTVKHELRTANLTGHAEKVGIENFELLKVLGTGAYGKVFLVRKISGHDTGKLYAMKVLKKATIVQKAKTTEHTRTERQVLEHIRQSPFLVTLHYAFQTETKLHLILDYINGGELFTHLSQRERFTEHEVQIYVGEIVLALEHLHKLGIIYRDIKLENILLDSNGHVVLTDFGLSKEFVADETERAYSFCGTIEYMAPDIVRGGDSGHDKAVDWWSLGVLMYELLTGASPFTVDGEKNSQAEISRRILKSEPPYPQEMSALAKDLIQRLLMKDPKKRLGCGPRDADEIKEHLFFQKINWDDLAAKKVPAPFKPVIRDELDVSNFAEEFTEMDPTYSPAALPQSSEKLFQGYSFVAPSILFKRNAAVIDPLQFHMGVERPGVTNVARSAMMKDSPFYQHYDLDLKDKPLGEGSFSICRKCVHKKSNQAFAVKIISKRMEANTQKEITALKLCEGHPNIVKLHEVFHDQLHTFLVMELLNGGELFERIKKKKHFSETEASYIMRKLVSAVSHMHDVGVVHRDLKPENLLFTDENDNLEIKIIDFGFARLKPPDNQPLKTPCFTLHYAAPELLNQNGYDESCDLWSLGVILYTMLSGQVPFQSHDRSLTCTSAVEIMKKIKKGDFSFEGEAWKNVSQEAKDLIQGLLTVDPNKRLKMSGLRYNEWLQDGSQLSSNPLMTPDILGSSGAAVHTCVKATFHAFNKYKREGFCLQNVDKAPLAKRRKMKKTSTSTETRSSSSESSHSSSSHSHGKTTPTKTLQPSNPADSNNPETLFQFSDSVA

[26] = biological target: RAC-alpha serine/threonine-protein kinase (Homo sapiens) (UniProt P31749); conditions: Compound concentration 1000.0 nM
Sequence of RAC-alpha serine/threonine-protein kinase (Homo sapiens) (P31749 whole entry): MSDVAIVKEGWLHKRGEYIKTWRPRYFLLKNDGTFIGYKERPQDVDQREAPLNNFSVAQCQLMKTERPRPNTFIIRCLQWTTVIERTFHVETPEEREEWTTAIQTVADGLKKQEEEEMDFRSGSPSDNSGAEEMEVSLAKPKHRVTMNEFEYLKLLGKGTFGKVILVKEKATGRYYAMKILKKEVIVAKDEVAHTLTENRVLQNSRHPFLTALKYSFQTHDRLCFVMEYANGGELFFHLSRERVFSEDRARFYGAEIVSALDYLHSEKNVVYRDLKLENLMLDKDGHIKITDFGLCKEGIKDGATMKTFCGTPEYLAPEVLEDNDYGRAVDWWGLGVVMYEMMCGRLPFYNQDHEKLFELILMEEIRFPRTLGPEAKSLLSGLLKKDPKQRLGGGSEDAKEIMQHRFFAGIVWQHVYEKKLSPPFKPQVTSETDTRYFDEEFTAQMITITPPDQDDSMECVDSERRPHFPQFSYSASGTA

[27] = test system: Hepatocyte growth factor receptor (Homo sapiens), P08581 [Y1235D]; conditions: Compound concentration 1000.0 nM
[28] = biological target: Cyclin-dependent kinase 4 (Homo sapiens) (UniProt P11802); conditions: Compound concentration 1000.0 nM; remark: listed apart in the source
[29] = biological target: Insulin-like growth factor 1 receptor (Homo sapiens) (UniProt P08069); conditions: Compound concentration 1000.0 nM
[30] = biological target: Serine/threonine-protein kinase PLK2 (Homo sapiens) (UniProt Q9NYY3); conditions: Compound concentration 1000.0 nM
[31] = biological target: Fibroblast growth factor receptor 3 (Homo sapiens) (UniProt P22607); conditions: Compound concentration 1000.0 nM
[32] = biological target: MAP kinase-interacting serine/threonine-protein kinase 2 (Homo sapiens) (UniProt Q9HBH9); conditions: Compound concentration 1000.0 nM
Sequence of MAP kinase-interacting serine/threonine-protein kinase 2 (Homo sapiens) (Q9HBH9 whole entry, looked up): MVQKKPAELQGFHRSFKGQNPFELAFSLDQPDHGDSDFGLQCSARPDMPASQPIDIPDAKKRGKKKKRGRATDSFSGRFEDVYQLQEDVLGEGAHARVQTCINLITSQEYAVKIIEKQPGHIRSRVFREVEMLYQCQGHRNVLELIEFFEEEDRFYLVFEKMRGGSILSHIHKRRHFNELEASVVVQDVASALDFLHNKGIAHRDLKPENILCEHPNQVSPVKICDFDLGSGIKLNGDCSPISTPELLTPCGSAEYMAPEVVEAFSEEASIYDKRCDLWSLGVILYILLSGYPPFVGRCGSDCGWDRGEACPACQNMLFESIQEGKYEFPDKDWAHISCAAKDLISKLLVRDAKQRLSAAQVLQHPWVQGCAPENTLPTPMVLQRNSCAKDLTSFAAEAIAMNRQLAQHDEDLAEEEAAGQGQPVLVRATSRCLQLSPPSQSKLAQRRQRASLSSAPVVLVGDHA

[33] = biological target: MAP kinase-interacting serine/threonine-protein kinase 1 (Homo sapiens) (UniProt Q9BUB5); conditions: Compound concentration 1000.0 nM
Sequence of MAP kinase-interacting serine/threonine-protein kinase 1 (Homo sapiens) (Q9BUB5 whole entry, looked up): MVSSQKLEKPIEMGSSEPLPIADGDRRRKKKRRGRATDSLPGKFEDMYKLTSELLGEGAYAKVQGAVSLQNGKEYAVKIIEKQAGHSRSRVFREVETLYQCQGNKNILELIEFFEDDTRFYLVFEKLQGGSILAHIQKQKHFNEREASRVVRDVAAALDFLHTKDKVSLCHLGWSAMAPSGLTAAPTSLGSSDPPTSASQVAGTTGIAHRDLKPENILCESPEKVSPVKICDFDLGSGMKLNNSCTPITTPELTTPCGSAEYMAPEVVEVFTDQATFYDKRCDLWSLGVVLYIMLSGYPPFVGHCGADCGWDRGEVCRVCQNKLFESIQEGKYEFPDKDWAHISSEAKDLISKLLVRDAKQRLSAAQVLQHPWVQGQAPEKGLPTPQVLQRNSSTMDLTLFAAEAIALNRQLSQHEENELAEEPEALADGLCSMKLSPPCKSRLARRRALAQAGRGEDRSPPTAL

[34] = biological target: Activin receptor type-1 (Homo sapiens) (UniProt Q04771); conditions: Compound concentration 1000.0 nM
[35] = test system: Tyrosine-protein kinase ABL1 (Homo sapiens), P00519 [Y253F]; conditions: Compound concentration 1000.0 nM
[36] = biological target: Wee1-like protein kinase 2 (Homo sapiens) (UniProt P0C1S8); conditions: Compound concentration 1000.0 nM
Sequence of Wee1-like protein kinase 2 (Homo sapiens) (P0C1S8 whole entry, looked up): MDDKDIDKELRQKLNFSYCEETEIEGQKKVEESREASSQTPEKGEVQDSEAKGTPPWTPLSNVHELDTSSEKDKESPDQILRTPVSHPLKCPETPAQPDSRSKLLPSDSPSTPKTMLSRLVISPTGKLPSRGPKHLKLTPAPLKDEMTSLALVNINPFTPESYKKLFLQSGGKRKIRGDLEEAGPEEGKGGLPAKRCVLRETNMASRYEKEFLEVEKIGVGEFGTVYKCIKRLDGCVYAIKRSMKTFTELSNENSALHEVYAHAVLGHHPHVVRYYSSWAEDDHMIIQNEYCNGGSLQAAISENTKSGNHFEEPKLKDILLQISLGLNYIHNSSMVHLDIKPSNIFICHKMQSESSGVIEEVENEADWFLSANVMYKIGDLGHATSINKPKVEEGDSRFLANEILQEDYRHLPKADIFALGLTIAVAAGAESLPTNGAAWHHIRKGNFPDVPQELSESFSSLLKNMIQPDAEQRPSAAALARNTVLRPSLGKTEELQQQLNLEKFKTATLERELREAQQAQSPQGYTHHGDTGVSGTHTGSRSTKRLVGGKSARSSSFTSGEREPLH

[37] = biological target: TRAF2 and NCK-interacting protein kinase (Homo sapiens) (UniProt Q9UKE5); conditions: Compound concentration 1000.0 nM
[38] = biological target: Ephrin type-A receptor 5 (Homo sapiens) (UniProt P54756); conditions: Compound concentration 1000.0 nM
[39] = biological target: Muscarinic acetylcholine receptor M2 (Homo sapiens) (UniProt P08172); conditions: Compound concentration 10.0 uM
[40] = biological target: Serine/threonine-protein kinase Nek6 (Homo sapiens) (UniProt Q9HC98); conditions: Compound concentration 1000.0 nM
[41] = test system: Phosphatidylinositol 4,5-bisphosphate 3-kinase catalytic subunit alpha isoform (Homo sapiens), P42336 [E542K]; conditions: Compound concentration 1000.0 nM
[42] = biological target: Serine/threonine-protein kinase SIK3 (Homo sapiens) (UniProt Q9Y2K2); conditions: Compound concentration 1000.0 nM
[43] = biological target: Macrophage colony-stimulating factor 1 receptor (Homo sapiens) (UniProt P07333); conditions: Compound concentration 1000.0 nM
[44] = biological target: Tyrosine-protein kinase JAK1 (Homo sapiens) (UniProt P23458); conditions: Compound concentration 1000.0 nM

Sequence of Myosin light chain kinase family member 4 (Homo sapiens) (Q86YV6 whole entry): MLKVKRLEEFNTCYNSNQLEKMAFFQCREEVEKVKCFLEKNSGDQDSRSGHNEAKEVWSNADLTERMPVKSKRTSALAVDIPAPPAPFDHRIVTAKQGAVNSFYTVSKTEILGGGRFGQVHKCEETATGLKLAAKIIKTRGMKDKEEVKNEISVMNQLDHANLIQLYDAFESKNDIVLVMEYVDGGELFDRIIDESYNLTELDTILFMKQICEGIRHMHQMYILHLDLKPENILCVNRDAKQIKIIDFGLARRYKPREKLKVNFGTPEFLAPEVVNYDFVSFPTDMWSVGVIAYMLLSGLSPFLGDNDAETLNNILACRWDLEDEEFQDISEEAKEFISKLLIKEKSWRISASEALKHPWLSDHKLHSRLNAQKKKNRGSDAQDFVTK

Compound: O=C1NC(c2ccccn2)Sc2ccccc21 (stereo not drawn) [BTZO-4]
- inhibition [1]: -1.52%
- inhibition [2]: 24.7%
- residual activity [3]: 90%
- residual activity [4]: 72%
- residual activity [5]: 100%
- residual activity [6]: 99%
- residual activity [7]: 100%
- residual activity [8]: 94%
- residual activity [9]: 100%
- residual activity [10]: 77%
- inhibition [11]: 6.34%
- residual activity [12]: 100%
- residual activity [13]: 100%
- residual activity [14]: 95%
- residual activity [15]: 87%
- inhibition [16]: 3.98%
- residual activity [17]: 65%
- residual activity [18]: 81%
- residual activity [19]: 86%
- residual activity [20]: 99%
- residual activity [21]: 67%
- residual activity [22]: 95%
- residual activity [23]: 96%
- residual activity [24]: 90%
- residual activity [25]: 95%
- residual activity [26]: 89%
- residual activity [27]: 96%
- residual activity [28]: 93%
- residual activity [29]: 80%
- residual activity [30]: 97%
- residual activity [31]: 97%
- residual activity [32]: 100%
- residual activity [33]: 82%
- residual activity [34]: 82%
- residual activity [35]: 69%
- residual activity [36]: 85%
- residual activity [37]: 100%
- residual activity [38]: 85%
- inhibition [39]: 13.7%
- residual activity [40]: 84%
- residual activity [41]: 100%
- residual activity [42]: 70%
- residual activity [43]: 91%
- residual activity [44]: 68%

Compound: O=c1nc(-c2ccccn2)sc2ccccc12 [BTZO-1]
- inhibition [1]: -8.56%
- inhibition [2]: 9.69%
- residual activity [3]: 87%
- residual activity [4]: 100%
- residual activity [5]: 100%
- residual activity [6]: 82%
- residual activity [7]: 87%
- residual activity [8]: 100%
- residual activity [9]: 100%
- residual activity [10]: 90%
- inhibition [11]: 55.9%
- residual activity [12]: 100%
- residual activity [13]: 81%
- residual activity [14]: 89%
- residual activity [15]: 79%
- inhibition [16]: 12.2%
- residual activity [17]: 74%
- residual activity [18]: 90%
- residual activity [19]: 70%
- residual activity [20]: 100%
- residual activity [21]: 94%
- residual activity [22]: 80%
- residual activity [23]: 100%
- residual activity [24]: 100%
- residual activity [25]: 94%
- residual activity [26]: 100%
- residual activity [27]: 100%
- residual activity [28]: 100%
- residual activity [29]: 80%
- residual activity [30]: 95%
- residual activity [31]: 83%
- residual activity [32]: 100%
- residual activity [33]: 89%
- residual activity [34]: 79%
- residual activity [35]: 83%
- residual activity [36]: 100%
- residual activity [37]: 83%
- residual activity [38]: 94%
- inhibition [39]: 5.17%
- residual activity [40]: 100%
- residual activity [41]: 89%
- residual activity [42]: 85%
- residual activity [43]: 95%
- residual activity [44]: 71%
